# Patent US9930893B2, “Inhibitors of DXP synthase and methods of use thereof” (The Johns Hopkins University, priority 2014, dated 2018)
# Biological target: T1, DXP synthase (Escherichia coli, UniProt P77488)
# T1 construct: made in house
# T1 sequence (P77488 1-620): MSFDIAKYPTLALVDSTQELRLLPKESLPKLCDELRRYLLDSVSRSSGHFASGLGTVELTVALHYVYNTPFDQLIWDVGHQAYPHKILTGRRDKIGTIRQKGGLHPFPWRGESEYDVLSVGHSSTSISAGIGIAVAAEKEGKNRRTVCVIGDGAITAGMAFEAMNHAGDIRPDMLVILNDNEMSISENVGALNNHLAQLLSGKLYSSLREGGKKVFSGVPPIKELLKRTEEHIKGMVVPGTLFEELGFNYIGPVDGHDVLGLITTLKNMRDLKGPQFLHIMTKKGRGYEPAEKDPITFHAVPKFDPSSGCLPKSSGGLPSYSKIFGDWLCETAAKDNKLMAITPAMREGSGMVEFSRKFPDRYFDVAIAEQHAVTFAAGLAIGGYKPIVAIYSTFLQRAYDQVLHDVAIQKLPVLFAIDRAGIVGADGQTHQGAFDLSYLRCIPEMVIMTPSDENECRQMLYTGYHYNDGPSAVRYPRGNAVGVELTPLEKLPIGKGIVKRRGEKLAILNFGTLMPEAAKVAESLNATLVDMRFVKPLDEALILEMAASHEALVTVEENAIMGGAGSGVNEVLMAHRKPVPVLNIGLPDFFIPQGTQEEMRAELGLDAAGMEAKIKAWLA
# Test: Aromatic aldehydes as DXP synthase acceptor substrates
# Assay type: biochemical
# Excerpt: Some ThDP-dependent enzymes are known to catalyze C—C bond formation using aromatic substrates with varying turnover efficiencies; ^[20] [21] […] As a starting point, we tested several aromatic aldehydes as acceptor substrates.
# [1] = aromatic aldehyde acceptor substrate
smiles,measurement,setting,value
"O=Cc1c(O)cc([N+](=O)[O-])cc1[N+](=O)[O-] [2-Hydroxy-4,6-dinitrobenzaldehyde]","Km higher than the natural substrate, D-GAP",,~18 fold
same,Km,[1],512 µM
same,kcat,[1],0.00583 ± 0.00083 s⁻¹
